Experimental data published in patent US10239878B2, “Macrocyclic ligands with pendant chelating moieties and complexes thereof” (LUMIPHORE, INC., priority 2016, dated 2019).
Counter-ions that a name gives are not always drawn. Marks after values point to notes of the source that are not given here.

What was measured:
[1] = Europium titration experiments for determining extinction coefficients; type: physicochemical; conditions: for extinction coefficient: UV-vis titration with europium chloride, TBS buffer pH 7.6, at lambda max; for lambda max: UV-vis titration, TBS buffer; for ε at λmax: by europium titration, TBS buffer pH 7.6; for ε at λmax (starred values): assumed equal to those measured by titration for 16 · Eu or 43 · Eu
Method: In order to determine accurate extinction coefficients for 16 and 16⋅Eu, titration experiments using europium chloride as the titrant were performed. Europium chloride hexahydrate (13.22 mg, 0.03608 mmol) was dissolved into 5 mM citrate buffer (pH=4) using a 100 mL volumetric flask to give a 0.3608 mM europium chloride solution, which was then titrated into a 0.5 mL solution of 16 in TBS buffer (Tris-buffered saline, 50 mM Tris, 150 mM NaCl, pH=7.6) using 5 μL aliquots. The UV-vis spectra were adjusted for the increase in solvent volume due to each injection. The results of the UV-vis titration are plotted in FIG. 3.
The volume of europium chloride corresponds to 16.70 nmol of europium, meaning the starting concentration of ligand 16 was 33.40 μM. […] These absorbance and concentration values yield extinction coefficients of 13,600 M^−1 cm^−1 and 14,300 M^−1 cm^−1 for the ligand 16 and the complex 16⋅Eu respectively.
In order to determine accurate extinction coefficients for 43 and 43⋅Eu, titration experiments using europium chloride as the titrant were performed. Europium chloride hexahydrate (47.58 mg, 0.1299 mmol) was dissolved into 50 mM citrate buffer (pH=4) using a 10 mL volumetric flask to give a 12.99 mM europium chloride solution, which was then transferred to a 100 mL volumetric flask and diluted 1:10 with water. The resulting 1.299 mM europium chloride solution (in 5 mM citrate buffer) was then titrated into a 1 mL solution of 43 in TBS buffer using 5 μL aliquots. The UV-vis spectra were adjusted for the increase in solvent volume due to each injection. The results of the UV-vis titration are plotted in FIG. 4.
The volume of europium chloride corresponds to 47.46 nmol of europium, meaning the starting concentration of ligand 43 was 47.46 μM. […] These absorbance and concentration values yield extinction coefficients of 13,000 M^−1 cm^−1 and 12,800 M^−1 cm^−1 for the ligand and complex respectively.
Titration of ligand 43 was also performed by luminescence (FIG. 5), monitoring the europium signal at 612 nm upon photoexcitation of the solution at 340 nm. The ligand solution used for the UV-vis titration of 43 mentioned above was first diluted 1:10 in TBS buffer. Similarly, the 1.299 mM stock europium solution was separately diluted 1:10 with water. […] The 32.99 μL equivalence point gives extinction coefficients of 14,400 M^−1 cm^−1 at 383 nm and 14,200 M^−1 cm^−1 at 357 nm for 43 and 43⋅Eu respectively. Averaging the values from both UV-vis and luminescence titration experiments of 43 yields extinction coefficients of 13,700 M^−1 cm^−1 at 383 nm and 13,500 M^−1 cm^−1 at 357 nm for 43 and 43⋅Eu respectively.

[2] = Photophysical characterization of Eu complexes (UV-vis absorption, quantum yield, lifetime); type: physicochemical; conditions: for ε260/ε at λmax / ε280/ε at λmax / λmax / Φtotal at 365 nm excitation: TBS buffer; for ε260/ε at λmax / ε280/ε at λmax / λmax: pH 7.6; for Φtotal at 365 nm excitation: quinine sulfate as quantum yield standard; for Lifetime: luminescence, HPLC purified Eu complexes
Method: The europium complexes of ligands 16, 29, 33, 40, and 43 were prepared by separately dissolving each ligand (2 mg) into methanol (200 μL). Excess europium chloride hexahydrate (˜5 equivalents) was dissolved in methanol (200 μL) and the full volume was added to each of the ligand solutions. The solvent was removed, and the residue was dissolved into DMF (50 μL). The europium complexes were then purified by semi-prep HPLC on an Agilent 1260 Infinity instrument using an Eclipse XDB-C18 column (5 μm, 9.4×250 mm). The mobile phase was 10 to 30% acetonitrile in water containing 0.1% trifluoroacetic acid. The volatiles were removed from the HPLC eluents under vacuum, and the residues were separately dissolved into methanol (500 μL) to give methanolic stock solutions of each europium complex with greater than 98% purity. A few drops of these methanolic solutions were evaporated to dryness, and then the residue was dissolved into TBS buffer at a concentration of ca. 3 μM to make aqueous stock solutions (20 mL) with an absorbance of 0.05 (1 cm path length) at 365 nm. Five dilutions (1/6, 2/6, 3/6, 4/6, and 5/6) were made from these aqueous stock solutions to yield six samples with evenly spaced concentrations (3 mL volume each). Quinine sulfate dissolved in 0.05 M sulfuric acid was similarly diluted to a final absorbance of 0.05 at 365 nm, and this solution was similarly (1/6, 2/6, 3/6, 4/6, and 5/6) diluted to afford six quinine sulfate reference samples of evenly spaced concentration. Quinine sulfate in 0.05 M sulfuric acid was used as the quantum yield standard (Φ=0.508). By measuring the absorbance and luminescence of these dilute solutions, the quantum yields of the new Eu complexes were determined. A 5 cm path-length quartz cell was used to measure the absorbance of these dilute solutions in order to improve the UV-vis signal-to-noise. Steady state photoluminescence measurements were collected in a 1 cm fluorescence cuvette at 365 nm excitation wavelength, 1 nm resolution, 10 nm excitation slit width, 1 nm emission slit width, and 0.2 sec integration time on an instrument that has been described elsewhere (D'Aléo, A.; Moore, E. G.; Szigethy, G.; Xu, J.; Raymond, K. N. Inorg. Chem. 2009, 48, 9316.). Absorption spectra were measured at 1 nm resolution, and the absorbance of each sample was taken as the average absorbance measured from 360-370 nm to reflect the 10 nm excitation slit width used for luminescence measurements. The data derived from these experiments, and from the titration experiments in example 11 are tabulated below.

[3] = 250 mM DTPA competition experiments (kinetic stability of Eu complexes); type: physicochemical
Description: From these experiments, it is clear that 43⋅Eu is remarkably stable to a wide range of competitive metal ions and chelators. The competitor concentrations mentioned above are a good way to assess the kinetic stability of the complex in various assay conditions. DTPA is an exceptionally good ligand for lanthanide ions, and thus it is not typically used in practical assays. However, DTPA competition offers an excellent way to benchmark the kinetic stability of the complexes reported here. […] In order to compare the kinetic stability of the complexes reported here, a 750 mM stock solution (25 mL) of DTPA was prepared by dissolving DTPA (7.375 g, 18.75 mmol) into water (20 mL) containing potassium hydroxide (5.26 g, 93.75 mmol). The pH of the DTPA solution was adjusted to pH=7.6 by addition of concentrated hydrochloric acid, and then the solution was diluted to a final volume of 25 mL to give a 750 mM DTPA stock solution at pH=7.6. HPLC purified europium complexes of 16, 29, 33, 40, and 43 were separately diluted to 11 μM in TBS buffer, pH=7.6. For each DTPA competition experiment, 1 mL of the 750 mM DTPA solution was added to 2 mL of the 11 μM europium complex solution. The luminescence at 612 nm (365 nm excitation) was monitored for these five separate solutions containing 250 mM DTPA and 7.1 μM of each europium complex as a function of time.

[4] = Thorium(IV) complexes; ligand denticity bi- to deca-dentate; cited from earlier work
[5] = in 0.05 M sulfuric acid; cited from earlier work

| ε260/ε at λmax [2] | ε280/ε at λmax [2] | λmax [2] | Φtotal at 365 nm excitation [2] | Lifetime [2] | SMILES | Log K1 [4] | other results |
| --- | --- | --- | --- | --- | --- | --- | --- |
| 1.40 | 1.12 | 361 nm | 30.9% | 716 μs | O=C1NCCCN(C(=O)c2cccc(=O)n2[O-])CCCCN(C(=O)c2cccc(=O)n2[O-])CCCNC(=O)c2ccc(n([O-])c2=O)C(=O)NCCNC(=O)c2ccc1c(=O)n2[O-].[Eu+3] [16⋅Eu] |  | extinction coefficient [1]: 14,300 M^−1 cm^−1; lambda max [1]: 361 nm; ε at λmax [1]: 14,300 M^−1cm^−1 |
| 1.42 | 1.18 | 363 nm | 29.8% | 716 μs | NCCCC[C@H]1CNC(=O)c2ccc(c(=O)n2[O-])C(=O)NCCCN(C(=O)c2cccc(=O)n2[O-])CCCCN(C(=O)c2cccc(=O)n2[O-])CCCNC(=O)c2ccc(n([O-])c2=O)C(=O)N1.[Eu+3] [29⋅Eu] |  | ε at λmax (starred values) [1]: 14,300* M^−1cm^−1; kinetic stability relative to 43⋅Eu to challenge by DTPA [3]: at least an order of magnitude; kinetic stability relative to m-tetrahydrofurandiamine-based macrocycles (40⋅Eu and 43⋅Eu) [3]: ~5 × |
| 1.40 | 1.14 | 363 nm | 30.0% | 723 μs | NCCOCCNC(=O)C1CCCN(C(=O)c2cccc(=O)n2[O-])CCCNC(=O)c2ccc(n([O-])c2=O)C(=O)NCCNC(=O)c2ccc(c(=O)n2[O-])C(=O)NCCCN1C(=O)c1cccc(=O)n1[O-].[Eu+3] (stereo not drawn) [33⋅Eu] |  | ε at λmax (starred values) [1]: 14,300* M^−1cm^−1; kinetic stability relative to m-tetrahydrofurandiamine-based macrocycles (40⋅Eu and 43⋅Eu) [3]: ~5 ×; reduction in kinetic stability upon introduction of the spermine-based sidearm ([3]; 33⋅Eu versus 16⋅Eu, 43⋅Eu versus 40⋅Eu): two fold |
| 1.51 | 1.19 | 357 nm | 28.2% | 729 μs | O=C1NCCCN(C(=O)c2cccc(=O)n2[O-])CCCCN(C(=O)c2cccc(=O)n2[O-])CCCNC(=O)c2ccc(n([O-])c2=O)C(=O)N[C@@H]2COC[C@@H]2NC(=O)c2ccc1c(=O)n2[O-].[Eu+3] [40⋅Eu] |  | ε at λmax (starred values) [1]: 13,500* M^−1cm^−1 |
|  |  |  |  |  | CC(=O)CC(C)=O [Acac] | 7.85 |  |
| 1.98 | 1.27 | 382 nm |  |  | O=C1NCCCN(C(=O)c2cccc(=O)n2O)CCCCN(C(=O)c2cccc(=O)n2O)CCCNC(=O)c2ccc(n(O)c2=O)C(=O)NCCNC(=O)c2ccc1c(=O)n2O [Compound 16] |  | extinction coefficient [1]: 13,600 M^−1 cm^−1; lambda max [1]: 382 nm; ε at λmax [1]: 13,600 M^−1cm^−1 |
|  |  |  |  |  | O=C(O)CN(CCN(CC(=O)O)CC(=O)O)CC(=O)O [EDTA] | 25.3 |  |
|  |  |  |  |  | O=C(O)CN(CCO)CCN(CC(=O)O)CC(=O)O [HEDTA] | 18.5 |  |
|  |  |  |  |  | O=C(O)CN(CC(=O)O)CC(=O)O [NTA] | 16.9 |  |
|  |  |  |  |  | C=C[C@H]1C[N@@]2CC[C@H]1C[C@H]2[C@H](O)c1ccnc2ccc(OC)cc12 [Quinine sulfate] |  | quantum yield standard Φ [5]: 0.508 |
|  |  |  |  |  | O=C(O)CN(CCN(CCN(CC(=O)O)CC(=O)O)CC(=O)O)CCN(CC(=O)O)CC(=O)O [TTHA] | 31.9 |  |
